Usually half-life stands for the time needed for the level to fall by half in the phase considered. A low value points to rapid decline. For orientation: CLint scaled means the capacity of the preparation to metabolise the compound, expressed as a volume cleared per time. In general, bioavailability refers to dose-corrected exposure relative to a reference, in per cent. Higher therefore signals good availability. For orientation: AUC(0-t) means the area under the concentration-time curve up to a stated or last time point. A high value points to high exposure. A word on the IC50: it is the concentration that gives 50% inhibition.

Series [1] is described as follows: Compound stability in human liver microsomes. The class given is in vitro ADME. Conditions: for half-life at 5 μM: human liver microsomes 0.5 mg protein/mL, compound 5 μM, NADPH 1.0 mM, 37° C.; for CLint scaled at 5 μM: human liver microsomes, in vivo CLint extrapolated.
A short description of series [2]: Compound stability in rat liver microsomes. In kind it is in vitro ADME. Conditions: pH 7.4; for half-life at 5 μM: rat liver microsomes 0.5 mg protein/mL, compound 5 μM, NADPH 1.0 mM, 37° C.; for CLint scaled at 5 μM: rat liver microsomes, in vivo CLint extrapolated.
A short description of series [3]: Pharmacokinetics after intravenous and oral administration in rats. The class given is in vivo, rat. Conditions: for clearance (CL) / AUC(0-t) / half-life / Vd: iv dosing; for bioavailability / AUC(0-t) / half-life / Vd: rat, plasma; for bioavailability: oral dose generally 5 or 10 mg/kg; for Vd: read-out: Vss.
The target of another series is PI3K (p110β/p85α) (h) (Homo sapiens (Human), UniProt P42338). The series can be described thus: PI3K (p110β/p85α) (h) non-radioactive HTRF kinase assay. The class given is biochemical.
A further series has as its target PI3K (p110δ/p85α) (h) (Homo sapiens (Human), UniProt O00329). The series can be described thus: PI3K (p110δ/p85α) (h) non-radioactive HTRF kinase assay. In kind it is biochemical.
A further series deals with PI3K (p110α/p85α) (h) (Homo sapiens (Human), UniProt P42336). The series can be described thus: PI3K (p110α/p85α) (h) non-radioactive HTRF kinase assay. In kind it is biochemical.
A further series concerns the target PI3K (p120γ) (h) (Homo sapiens (Human), UniProt P48736). Put plainly: PI3K (p120γ) (h) non-radioactive HTRF kinase assay. In kind it is biochemical. In general terms: Time-resolved FRET reads energy transfer from a long-lived donor to a nearby acceptor.

Structures are written as SMILES. Where two headings read alike, the source gives them in different places.

PI3K (p110δ/p85α) (h), sequence (O00329 whole entry): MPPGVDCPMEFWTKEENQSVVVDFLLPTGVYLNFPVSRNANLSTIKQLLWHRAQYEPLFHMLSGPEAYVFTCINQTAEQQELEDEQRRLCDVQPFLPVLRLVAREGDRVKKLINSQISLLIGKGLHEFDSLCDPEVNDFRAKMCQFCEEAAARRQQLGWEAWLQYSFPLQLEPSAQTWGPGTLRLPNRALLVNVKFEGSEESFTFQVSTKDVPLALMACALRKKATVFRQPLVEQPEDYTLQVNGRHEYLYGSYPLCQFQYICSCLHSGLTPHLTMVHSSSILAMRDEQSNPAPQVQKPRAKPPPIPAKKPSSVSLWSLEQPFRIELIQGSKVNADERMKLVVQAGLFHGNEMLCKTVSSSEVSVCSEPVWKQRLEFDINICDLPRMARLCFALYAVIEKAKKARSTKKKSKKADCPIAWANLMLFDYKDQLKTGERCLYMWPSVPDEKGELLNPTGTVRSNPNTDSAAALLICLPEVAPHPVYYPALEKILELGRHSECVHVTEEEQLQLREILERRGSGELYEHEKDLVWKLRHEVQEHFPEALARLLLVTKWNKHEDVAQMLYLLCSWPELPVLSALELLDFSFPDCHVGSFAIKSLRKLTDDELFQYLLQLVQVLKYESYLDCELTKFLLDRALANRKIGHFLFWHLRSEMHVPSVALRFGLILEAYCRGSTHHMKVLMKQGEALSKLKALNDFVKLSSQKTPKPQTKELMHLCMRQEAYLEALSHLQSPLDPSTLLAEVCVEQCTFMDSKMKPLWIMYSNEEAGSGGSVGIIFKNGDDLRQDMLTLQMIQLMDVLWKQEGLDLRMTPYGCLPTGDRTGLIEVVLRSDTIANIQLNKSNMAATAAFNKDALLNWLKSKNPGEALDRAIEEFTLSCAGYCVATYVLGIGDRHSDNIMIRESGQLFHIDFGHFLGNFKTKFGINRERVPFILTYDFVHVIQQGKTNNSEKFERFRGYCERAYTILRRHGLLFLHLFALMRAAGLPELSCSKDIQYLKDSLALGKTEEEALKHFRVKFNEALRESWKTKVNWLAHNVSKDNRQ
PI3K (p110δ/p85α) (h), sequence (P27986 whole entry partner): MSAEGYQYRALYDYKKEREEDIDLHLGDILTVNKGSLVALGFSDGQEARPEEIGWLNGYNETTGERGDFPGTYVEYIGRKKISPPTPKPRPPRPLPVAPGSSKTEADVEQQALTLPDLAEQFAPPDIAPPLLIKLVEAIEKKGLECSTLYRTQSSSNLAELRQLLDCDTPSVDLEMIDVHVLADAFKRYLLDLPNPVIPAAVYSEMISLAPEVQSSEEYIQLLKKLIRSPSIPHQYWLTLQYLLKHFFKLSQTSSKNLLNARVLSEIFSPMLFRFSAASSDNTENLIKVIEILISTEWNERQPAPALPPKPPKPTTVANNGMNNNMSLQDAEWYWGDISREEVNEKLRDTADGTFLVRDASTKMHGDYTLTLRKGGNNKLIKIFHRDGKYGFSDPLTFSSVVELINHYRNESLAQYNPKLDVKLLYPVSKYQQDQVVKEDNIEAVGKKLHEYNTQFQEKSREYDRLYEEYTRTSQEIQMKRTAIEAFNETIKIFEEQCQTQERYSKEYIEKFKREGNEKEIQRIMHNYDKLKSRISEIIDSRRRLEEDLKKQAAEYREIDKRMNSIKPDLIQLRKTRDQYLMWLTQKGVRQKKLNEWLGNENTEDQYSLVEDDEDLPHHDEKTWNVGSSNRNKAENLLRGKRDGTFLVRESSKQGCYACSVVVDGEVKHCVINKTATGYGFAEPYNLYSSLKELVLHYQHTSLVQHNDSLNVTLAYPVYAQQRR
PI3K (p120γ) (h), sequence (P48736 whole entry): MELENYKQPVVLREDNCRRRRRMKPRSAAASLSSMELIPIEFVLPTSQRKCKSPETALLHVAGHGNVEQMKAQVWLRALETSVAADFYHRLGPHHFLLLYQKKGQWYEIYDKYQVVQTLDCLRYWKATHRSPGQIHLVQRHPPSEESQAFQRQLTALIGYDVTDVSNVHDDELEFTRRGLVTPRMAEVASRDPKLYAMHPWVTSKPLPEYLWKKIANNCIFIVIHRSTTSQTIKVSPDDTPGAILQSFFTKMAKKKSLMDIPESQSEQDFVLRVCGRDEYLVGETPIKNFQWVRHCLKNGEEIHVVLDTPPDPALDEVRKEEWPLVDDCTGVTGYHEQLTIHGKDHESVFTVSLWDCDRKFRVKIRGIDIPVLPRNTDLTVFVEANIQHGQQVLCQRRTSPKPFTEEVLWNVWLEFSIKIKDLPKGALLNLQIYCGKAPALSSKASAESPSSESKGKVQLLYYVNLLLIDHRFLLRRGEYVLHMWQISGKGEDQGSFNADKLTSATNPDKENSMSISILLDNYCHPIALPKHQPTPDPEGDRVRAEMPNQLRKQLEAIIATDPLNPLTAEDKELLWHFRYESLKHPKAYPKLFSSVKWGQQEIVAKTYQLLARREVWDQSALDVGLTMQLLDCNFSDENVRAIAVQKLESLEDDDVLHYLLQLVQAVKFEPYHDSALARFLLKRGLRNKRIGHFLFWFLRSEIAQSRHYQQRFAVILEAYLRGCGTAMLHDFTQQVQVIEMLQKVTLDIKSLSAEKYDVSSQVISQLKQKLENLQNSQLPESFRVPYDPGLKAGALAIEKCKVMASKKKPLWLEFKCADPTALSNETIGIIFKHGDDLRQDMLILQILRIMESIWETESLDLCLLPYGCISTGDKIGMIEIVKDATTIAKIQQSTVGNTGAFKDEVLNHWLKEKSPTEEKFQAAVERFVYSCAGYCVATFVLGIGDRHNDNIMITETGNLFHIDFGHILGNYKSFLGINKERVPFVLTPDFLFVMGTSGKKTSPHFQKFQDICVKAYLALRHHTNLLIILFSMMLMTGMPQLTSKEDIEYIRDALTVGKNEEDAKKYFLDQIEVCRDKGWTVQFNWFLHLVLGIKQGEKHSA
PI3K (p110α/p85α) (h), sequence (P42336 whole entry): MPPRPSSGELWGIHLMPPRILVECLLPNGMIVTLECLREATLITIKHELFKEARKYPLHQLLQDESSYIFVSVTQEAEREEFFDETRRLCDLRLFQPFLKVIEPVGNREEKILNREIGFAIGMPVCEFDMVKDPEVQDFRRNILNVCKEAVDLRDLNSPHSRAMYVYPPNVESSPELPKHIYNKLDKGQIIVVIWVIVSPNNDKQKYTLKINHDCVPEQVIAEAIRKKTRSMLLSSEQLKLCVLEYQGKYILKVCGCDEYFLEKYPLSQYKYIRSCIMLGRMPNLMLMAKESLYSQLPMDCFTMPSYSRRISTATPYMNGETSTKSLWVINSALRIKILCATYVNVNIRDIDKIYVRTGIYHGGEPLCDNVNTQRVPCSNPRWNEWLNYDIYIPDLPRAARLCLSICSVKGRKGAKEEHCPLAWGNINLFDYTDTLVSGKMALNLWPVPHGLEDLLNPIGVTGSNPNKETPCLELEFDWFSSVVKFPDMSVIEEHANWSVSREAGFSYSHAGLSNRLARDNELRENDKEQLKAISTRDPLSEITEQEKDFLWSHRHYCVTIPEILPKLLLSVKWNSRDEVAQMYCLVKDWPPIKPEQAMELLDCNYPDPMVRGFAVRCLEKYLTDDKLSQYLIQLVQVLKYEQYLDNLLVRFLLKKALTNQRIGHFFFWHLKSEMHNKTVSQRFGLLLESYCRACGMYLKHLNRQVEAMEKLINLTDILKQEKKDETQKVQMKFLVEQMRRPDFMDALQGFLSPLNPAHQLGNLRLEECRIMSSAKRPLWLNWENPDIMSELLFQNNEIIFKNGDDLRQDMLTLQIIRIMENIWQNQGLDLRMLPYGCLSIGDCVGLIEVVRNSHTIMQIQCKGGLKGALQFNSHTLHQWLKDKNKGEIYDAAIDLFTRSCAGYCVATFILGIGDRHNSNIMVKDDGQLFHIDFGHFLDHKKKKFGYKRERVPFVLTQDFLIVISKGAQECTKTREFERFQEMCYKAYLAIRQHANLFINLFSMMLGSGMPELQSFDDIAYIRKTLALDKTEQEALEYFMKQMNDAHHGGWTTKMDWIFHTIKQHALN
PI3K (p110α/p85α) (h), sequence (P27986 whole entry partner): as the sequence (P27986 whole entry partner) above
PI3K (p110β/p85α) (h), sequence (P42338 whole entry): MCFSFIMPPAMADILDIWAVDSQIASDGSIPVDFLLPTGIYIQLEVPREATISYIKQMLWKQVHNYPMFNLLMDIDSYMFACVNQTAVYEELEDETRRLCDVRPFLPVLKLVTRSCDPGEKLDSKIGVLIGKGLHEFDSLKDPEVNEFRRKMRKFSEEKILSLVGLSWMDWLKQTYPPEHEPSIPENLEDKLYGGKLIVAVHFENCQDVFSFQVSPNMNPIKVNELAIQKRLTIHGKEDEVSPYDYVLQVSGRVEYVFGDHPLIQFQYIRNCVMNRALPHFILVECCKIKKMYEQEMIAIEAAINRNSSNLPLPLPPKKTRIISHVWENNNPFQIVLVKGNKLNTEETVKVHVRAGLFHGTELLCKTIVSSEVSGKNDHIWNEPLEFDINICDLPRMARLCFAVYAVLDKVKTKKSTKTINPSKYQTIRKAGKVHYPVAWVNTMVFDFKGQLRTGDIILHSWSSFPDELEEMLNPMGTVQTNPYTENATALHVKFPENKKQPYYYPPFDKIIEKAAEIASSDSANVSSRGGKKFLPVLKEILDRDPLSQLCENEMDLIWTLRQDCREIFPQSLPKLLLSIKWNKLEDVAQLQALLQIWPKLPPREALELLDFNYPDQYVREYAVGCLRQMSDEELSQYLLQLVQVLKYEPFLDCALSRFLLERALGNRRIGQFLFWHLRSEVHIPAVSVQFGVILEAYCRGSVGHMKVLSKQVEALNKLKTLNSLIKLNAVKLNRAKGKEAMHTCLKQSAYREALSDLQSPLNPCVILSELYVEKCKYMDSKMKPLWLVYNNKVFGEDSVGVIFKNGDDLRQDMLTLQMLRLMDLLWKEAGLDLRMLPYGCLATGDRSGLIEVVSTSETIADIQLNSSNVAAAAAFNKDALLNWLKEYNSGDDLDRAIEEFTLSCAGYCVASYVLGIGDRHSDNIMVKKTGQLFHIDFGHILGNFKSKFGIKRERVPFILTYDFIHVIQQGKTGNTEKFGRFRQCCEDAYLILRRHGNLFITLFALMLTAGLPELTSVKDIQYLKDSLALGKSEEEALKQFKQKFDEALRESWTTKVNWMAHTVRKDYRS
PI3K (p110β/p85α) (h), sequence (P27986 whole entry partner): as the sequence (P27986 whole entry partner) above

With `CC[C@H](Nc1ncnc(N)c1-c1ncc(C)o1)c1nc2cccc(Cl)c2c(=O)n1C1CC1` [Ex. 7, (S)-2-(1-((6-amino-5-(5-methyloxazol-2-yl)pyrimidin-4-yl)amino)propyl)-5-chloro-3-cyclopropylquinazolin-4(3H)-one], in series [1], the half-life at 5 μM worked out at 19.4 min and the CLint scaled at 5 μM was 89.7 mL/min/kg. In addition, in series [2], the half-life at 5 μM was found to be 10.5 min and the CLint scaled at 5 μM was 237 mL/min/kg. Also, in series [3] (dose 1 mg/kg), the “clearance (CL)” value was 3.29 L/h/kg, the AUC(0-t) came to 300 ng·h/mL, the half-life is 79.8 min and the Vd worked out at 5.82 L/kg. Further, in series [3] (iv dose 1 mg/kg), the bioavailability came out at 45.7%. Besides, at PI3K (p110β/p85α) (h), the IC50 is 2780 nM. The half-maximal inhibitory concentration (IC50) at PI3K (p110δ/p85α) (h) was determined as 246 nM.

For `CC[C@H](Nc1ncnc(N)c1-c1nnc(C)o1)c1nc2cccc(Cl)c2c(=O)n1C1CC1` [Ex. 2, (S)-2-(1-((6-amino-5-(5-methyl-1,3,4-oxadiazol-2-yl)pyrimidin-4-yl)amino)-propyl)-5-chloro-3-cyclopropylquinazolin-4(3H)-one], in series [1], the half-life at 5 μM is 32.1 min and the CLint scaled at 5 μM was 54.1 mL/min/kg. Moreover, in series [2], the half-life at 5 μM was 31.4 min and the CLint scaled at 5 μM was 79.1 mL/min/kg. Besides, in series [3] (dose 1 mg/kg), the “clearance (CL)” value was 2.47 L/h/kg, the AUC(0-t) stood at 405 ng·h/mL, the half-life is 75.6 min and the Vd was 3.93 L/kg. The molecule further registered a bioavailability in series [3] (iv dose 1 mg/kg) of 63.9%. The IC50 at PI3K (p110α/p85α) (h) is greater than 3000 nM. The IC50 at PI3K (p110β/p85α) (h) stood at 168 nM. Moreover, the IC50 on PI3K (p110δ/p85α) (h) is 33 nM. Besides, the IC50 on PI3K (p120γ) (h) came out at 1930 nM.

On to `Cc1noc(-c2c(N)ncnc2N[C@@H](C)c2nc3cccc(F)c3c(=O)n2-c2ccccc2)n1` [Ex. 63, (S)-2-(1-((6-amino-5-(3-methyl-1,2,4-oxadiazol-5-yl)pyrimidin-4-yl)amino)ethyl)-5-fluoro-3-phenylquinazolin-4(3H)-one], for which the half-life at 5 μM in series [1] was found to be 47.9 min; in series [2] it was 17.9 min. The CLint scaled at 5 μM was 36.3 mL/min/kg in series [1] and 139 mL/min/kg in series [2]. Moreover, the IC50 is greater than 3000 nM at PI3K (p110α/p85α) (h), 1320 nM at PI3K (p110β/p85α) (h), 18 nM on PI3K (p110δ/p85α) (h) and 269 nM at PI3K (p120γ) (h).

`CC[C@H](Nc1ncnc(N)c1-c1ccccn1)c1nc2cccc(Cl)c2c(=O)n1C1CC1` [Ex. 11, (S)-2-(1-((6-amino-5-(pyridin-2-yl)pyrimidin-4-yl)amino)propyl)-5-chloro-3-cyclopropylquinazolin-4(3H)-one]: in series [1], the half-life at 5 μM stood at 78.2 min and the CLint scaled at 5 μM is 22.2 mL/min/kg. Besides, in series [2], the half-life at 5 μM came out at 62.2 min and the CLint scaled at 5 μM was 39.9 mL/min/kg. Further, in series [3] (dose 0.5 mg/kg), the “clearance (CL)” value is reported as 0.29 L/h/kg, the AUC(0-t) was found to be 1690 ng·h/mL, the half-life was 157 min and the Vd turned out to be 0.59 L/kg. The same molecule came in with a bioavailability in series [3] (iv dose 0.5 mg/kg) of 38.5%. Also, at PI3K (p110β/p85α) (h), the IC50 is greater than 3000 nM. Further, on PI3K (p110δ/p85α) (h), the IC50 worked out at 1470 nM.

On to `CC[C@H](Nc1ncnc(N)c1-c1nnc(C)o1)c1nc2cccc(Cl)c2c(=O)n1-c1ccccc1` [Ex. 1, (S)-2-(1-((6-amino-5-(5-methyl-1,3,4-oxadiazol-2-yl)pyrimidin-4-yl)amino)-propyl)-5-chloro-3-phenylquinazolin-4(3H)-one], for which, in series [1], the half-life at 5 μM is 53.5 min and the CLint scaled at 5 μM was 32.5 mL/min/kg. In series [2], the half-life at 5 μM came out at 17.5 min and the CLint scaled at 5 μM was 142 mL/min/kg. In addition, in series [3] (dose 0.5 mg/kg), the “clearance (CL)” value worked out at 2.84 L/h/kg, the AUC(0-t) is 355 ng·h/mL, the half-life is 46.8 min and the Vd amounted to 3.68 L/kg. In addition, in series [3] (iv dose 0.5 mg/kg), the bioavailability was found to be 32.3%. For the same molecule, the IC50 on PI3K (p110δ/p85α) (h) amounted to 3 nM. For the same molecule, at PI3K (p120γ) (h), the IC50 turned out to be 384 nM.

`CC[C@H](Nc1ncnc(N)c1-c1ncnn1C)c1nc2cccc(Cl)c2c(=O)n1-c1ccccc1` [Ex. 10, 2-((1S)-1-((6-amino-5-(1-methyl-1H-1,2,4-triazol-5-yl)pyrimidin-4-yl)amino)propyl)-5-chloro-3-phenylquinazolin-4(3H)-one]: in series [1], the half-life at 5 μM turned out to be 92 min and the CLint scaled at 5 μM was 18.9 mL/min/kg. Moreover, in series [2], the half-life at 5 μM was 70.1 min and the CLint scaled at 5 μM was 35.4 mL/min/kg. Besides, in series [3] (dose 0.5 mg/kg), the “clearance (CL)” value is listed as 0.21 L/h/kg, the AUC(0-t) is 2420 ng·h/mL, the half-life was 72 min and the Vd turned out to be 0.3 L/kg. Also, in series [3] (iv dose 0.5 mg/kg), the bioavailability turned out to be 40.2%. On PI3K (p110β/p85α) (h), the IC50 was greater than 3000 nM. Also, the IC50 on PI3K (p110δ/p85α) (h) turned out to be 2510 nM.

With `CC[C@H](Nc1ncnc(N)c1-c1nnc(C)o1)c1nc2cccc(Cl)c2c(=O)n1-c1cccc(F)c1` [Ex. 34, (S)-2-(1-((6-amino-5-(5-methyl-1,3,4-oxadiazol-2-yl)pyrimidin-4-yl)amino)-propyl)-5-chloro-3-(3-fluorophenyl)quinazolin-4(3H)-one], the half-life at 5 μM in series [1] was found to be 29.8 min; in series [2] it was 8.94 min. The CLint scaled at 5 μM is 58.3 mL/min/kg in series [1] and 278 mL/min/kg in series [2]. Moreover, the IC50 on PI3K (p110α/p85α) (h) was greater than 3000 nM; at PI3K (p110β/p85α) (h) it was 1360 nM; at PI3K (p110δ/p85α) (h), 12 nM; on PI3K (p120γ) (h) it was greater than 3000 nM.

As for `CC[C@H](Nc1ncnc(N)c1-c1nc(C)no1)c1nc2cccc(F)c2c(=O)n1C1CC1` [Ex. 23, (S)-2-(1-((6-amino-5-(3-methyl-1,2,4-oxadiazol-5-yl)pyrimidin-4-yl)amino)-propyl)-3-cyclopropyl-5-fluoroquinazolin-4(3H)-one], in series [1], the half-life at 5 μM turned out to be 44.3 min and the CLint scaled at 5 μM was 56 mL/min/kg. In series [2], the half-life at 5 μM was found to be 56.9 min and the intrinsic metabolic clearance (CLint scaled) at 5 μM is 43.7 mL/min/kg. For the same molecule, in series [3] (dose 1 mg/kg), the “clearance (CL)” value is 4.28 L/h/kg, the AUC(0-t) was 237 ng·h/mL, the half-life was 56.4 min and the Vd stood at 5.02 L/kg. In series [3] (iv dose 1 mg/kg), this molecule had a bioavailability of 34.1%. Moreover, the IC50 on PI3K (p110δ/p85α) (h) was 52 nM.

`CC[C@H](Nc1ncnc(N)c1C1=N[C@@H](C)CO1)c1nc2cccc(Cl)c2c(=O)n1-c1ccccc1` [Ex. 6, 2-((S)-1((6-amino-5-((S)-4-methyl-4,5-dihydrooxazol-2-yl)pyrimidin-4-yl)amino)propyl)-5-chloro-3-phenylquinazolin-4(3H)-one]: in series [1], the half-life at 5 μM was determined as 3.11 min and the CLint scaled at 5 μM was 560 mL/min/kg. Further, in series [2], the half-life at 5 μM was 3.44 min and the CLint scaled at 5 μM is 722 mL/min/kg. In series [3] (dose 1 mg/kg), the “clearance (CL)” value amounted to 6.61 L/h/kg, the exposure AUC(0-t) turned out to be 151 ng·h/mL, the half-life is 69 min and the Vd stood at 6.75 L/kg. The bioavailability in series [3] (iv dose 1 mg/kg) is 5.56%. Moreover, the IC50 at PI3K (p110β/p85α) (h) was greater than 3000 nM. Also, at PI3K (p110δ/p85α) (h), the IC50 is 99 nM.

As to `CCc1noc(-c2c(N)ncnc2N[C@@H](CC)c2nc3cccc(Cl)c3c(=O)n2C2CC2)n1` [Ex. 56, (S)-2-(1-((6-amino-5-(3-ethyl-1,2,4-oxadiazol-5-yl)pyrimidin-4-yl)amino)-propyl)-5-chloro-3-cyclopropylquinazolin-4(3H)-one], in series [1], the half-life at 5 μM was found to be 20 min and the CLint scaled at 5 μM was 87 mL/min/kg. In series [2], the half-life at 5 μM came to 20.4 min and the CLint scaled at 5 μM was 122 mL/min/kg. Further, in series [3] (dose 1 mg/kg), the “clearance (CL)” value is 4.48 L/h/kg, the AUC(0-t) was determined as 217 ng·h/mL, the half-life is 104 min and the Vd is 8.12 L/kg. The same molecule gave a bioavailability in series [3] (iv dose 1 mg/kg) of 60.9%. Moreover, the IC50 on PI3K (p110δ/p85α) (h) is 9 nM.

These data come from patent US9670194B2 (Calitor Sciences, LLC, priority 2013, dated 2017).
